In patent US20180318383A1, “PEPTIDE HAVING NEURONAL LOSS PREVENTION AND REGENERATION EFFECTS, AND COMPOSITION CONTAINING SAME” (GEMVAX & KAEL CO., LTD., priority 2015, published 2018):

Assays:
neuronal apoptosis = assay: Oxygen-glucose deprivation (OGD), in vitro model of ischemic stroke; format: cell-based
NSCs = assay: Cell viability of NSCs (CCK-8, MTT, LDH); format: cell-based, rat; conditions: 48 hours
Procedure: NSCs were isolated from the brain of a rat embryo, cultured and developed. The NSC culture was performed in the same manner as to be described below. Briefly describing, a rat embryo was obtained on day 13 of the embryonic period, and the brain was quickly removed and placed in a petri dish containing cold phosphate-buffered physiological saline (Hank's balanced salt solution; HBSS).
Single cells were isolated from the cerebral cortex, the lateral ganglion eminence, and the embryonic midbrain. These cells were put into a dish pre-treated with L-ornithine and fibronectin, containing calcium and magnesium-free phosphate-buffered physiological saline (PBS) at a density of 20,000 cells/cm^2. In addition, the cells were cultured in an N2 medium (DMEM F/12, […] insulin, 100 mg/L transferrin, 30 nM selenite, […], 20 nM progesterone, 0.2 mM ascorbic acid, […], 8.6 mM D(+) glucose, and […]). The culture was maintained in humidified and 5% CO2 conditions for 4 to 6 days at 37° C.
NSCs were divided into 6 samples, and each sample was treated with […] Aβ25-30 oligomers for 48 hours to identify a suitable concentration. […] Briefly, Aβ25-30 was dissolved in hexafluoroisopropanol to reach a concentration of 1 mM. In addition, the prepared solution was dispensed using a sterilized ultramicrocentrifuge tube. […]
To identify the PEP1 effect in NSCs, PEP1 was treated at various concentrations of 0, 1, 10, 50, 100, and 200 μM for 48 hours. […] The plate was gently washed with PBS several times, and cell viability was measured using a cell counting kit-8 (CCK-8), MTT and lactate dehydrogenase (LDH).
CCK-8 was used as a method for counting living cells by bonding 2-[2-methoxy-4-nitrophenyl]-3-[4-nitrophenyl]-5-[2,4-disulfophenyl]-2H-tetrazolium, monosodium salt (WST-8) with 1-methoxyphenazinium methylsulfate (PMS). […] Cell viability was evaluated by measuring absorbance at 450 nm. […] Cell viability was evaluated by measuring absorbance at 490 nm and reference absorbance at 690 nm. […]

oligomer Aβ = assay: Expression level of oligomer Aβ in 3XTg-AD mice (western blotting); format: in vivo; conditions: hippocampus and whole brain; vs control and Donepezil
Procedure: To test the efficacy of PEP1 on AD, AD transgenic mice (3XTg-AD) were purchased from Jackson Laboratory. Genetic characteristics of the transgenic mice are as follows: B6; 129-Psen1tm1Mpm Tg(APPSwe, tauP301L)1Lfa/Mmjax. […] One week after mice were confirmed as pregnant, new mice were delivered and weaned for 3 weeks. Two weeks later, mature mice were obtained.
During the preliminary breeding and the entire period of the experiment, a temperature was maintained at 23±2° C. and a relative humidity was maintained at 60±10%, and then the mice were raised under a 12-hour dark/light cycle. Experimental animals were divided into five groups, and each group included 10 animals. The divided experimental groups are as follows. […]
The PEP1, physiological saline, donepezil and scramble peptide were subcutaneously injected at each concentration three times a week for two months from the age of 12 months, and then two months after the injection, cognitive/memory behavior tests (passive avoidance test and Y maze test) were performed to examine a degree of improvement in cognitive function and memory function. After the brain was extracted to separate the hippocampus, the amounts of amyloid beta in the hippocampus and the whole brain, and the amounts of an amyloid beta oligomer and NFT generated by tau hyperphosphorylation were determined by western blotting and immunostaining. […]

EARPALLTSRLRFIPK (homo sapiens) [PEP1, hTERT-derived peptide consisting of 16 amino acids, telomerase location [611-626]]
neuronal apoptosis caused by oxygen-glucose deprivation (OGD) (neuronal apoptosis): inhibiting neuronal apoptosis | survival ability of NSCs (NSCs; 20 μM Aβ25-35 + PEP1 up to 100 μM, vs 20 μM Aβ25-35 only, MTT, CCK-8, LDH): gradually increased | cell survival ability (NSCs; NSCs, PEP1 alone 0-200 μM, CCK-8, up to 100 μM): not influenced | expression level of oligomer Aβ (oligomer Aβ): decreased
